# Reference: PubChem BioAssay (NCI)
# “And” between values parts separate entries of the source, which are not always exact repeats. Identical values can stand only once.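 Following 48 hours of exposure in 96-well plates, responses at five concentrations were used to interpolate endpoints linearly. GI50 marks 50% less growth. TGI is the concentration that stops growth completely.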
# Assays:
# Assay in all cases: NCI anticancer screen, dose series, 48 h
# BT-549 breast = test system: BT-549 breast
# HCC-2998 colon = test system: HCC-2998 colon
# HCT-116 colon = test system: HCT-116 colon
# HCT-15 colon = test system: HCT-15 colon
# HS 578T breast = test system: HS 578T breast
# NCI-H226 lung = test system: NCI-H226 lung
# SK-OV-3 ovarian = test system: SK-OV-3 ovarian
# OVCAR-8 ovarian = test system: OVCAR-8 ovarian
SMILES,GI50 (BT-549 breast) [µM],TGI (BT-549 breast),GI50 (HCC-2998 colon) [µM],TGI (HCC-2998 colon),GI50 (HCT-116 colon) [µM],TGI (HCT-116 colon) [µM],GI50 (HCT-15 colon) [µM],TGI (HCT-15 colon) [µM],GI50 (HS 578T breast) [µM],TGI (HS 578T breast) [µM],GI50 (NCI-H226 lung) [µM],TGI (NCI-H226 lung),GI50 (SK-OV-3 ovarian) [µM],TGI (SK-OV-3 ovarian) [µM],GI50 (OVCAR-8 ovarian) [µM],TGI (OVCAR-8 ovarian)
N#CCCCCCn1c2ccccc2c2c3c(c4c5ccccc5[nH]c4c21)C(=O)N(O)C3=O,1.84,9.53 µM,1.82,6.06 µM,0.894,2.37,2.15,7.82,4.77,> 100,1.93,4.74 µM,2.55,19.4,,
CCOC(=O)Nc1ccc2nc(Sc3ccc(Cl)cc3)sc2c1,11.6,46.3 µM,15.3,> 71.4 µM,1.19,39.3,0.632,> 87.3,7.25,97.9,7.9,76.3 µM,4.8,> 95,7.72,70.4 µM
CC(=O)O[C@H]1Cc2c([nH]c3ccccc23)[C@@H](c2ccc(Cl)cc2)N1C(=O)CCNC(C)(C)C,4,8.27 µM,3.65,7.85 µM,1.64,6.32,4.05,8.32,3.76,13,2.11,7.15 µM,4.53,8.97,4.86,9.45 µM
COc1ccc(OC)c(/C=C/C(=O)c2ccc(SC)cc2)c1,2.8,7.01 µM,4.81,17.1 µM,2.57,7.77,13.8,36.6,3.81,> 100,28.9,88.4 µM,8.07,> 100,24.3,68.7 µM
COC(=O)C1=C(C)NC(C)=C(C(=O)OC)C1c1ccccc1[N+](=O)[O-],> 100,> 100 µM,> 100,> 100 µM,> 100,> 100,65.8,> 100,32.4,> 100,87.6,> 100 µM,> 100,> 100,64.8,> 100 µM
Cn1cc(C2=C(c3cccc(Cl)c3)C(=O)NC2=O)c2ccccc21,> 25,> 25 µM,9.59,> 25 µM,> 25,> 25,> 25,> 25,7.28,> 25,> 20.6,> 25 µM,> 25,> 25,> 25,> 25 µM
CC1CCCc2c(CC3CC(=O)NC(=O)C3)nc(N)nc21 (centres undefined),,> 100 µM,,> 100 µM,,> 100,,> 100,,,,> 100 µM,,> 100,,> 100 µM
COc1ccc2c(c1)/C(=N/OC(C)=O)c1c-2c(Nc2ccc(/C(C)=N/OC(C)=O)cc2)nc2ccccc12,> 100,> 100 µM,26,59 µM,35,> 100,57.5,> 100,66,> 100,> 100,> 100 µM,71.6,> 100,63.3,> 100 µM
CC[C@@]1(O)C(=O)N(CCN(C)C)Cc2c1cc1n(c2=O)Cc2cc3ccccc3nc2-1,42.5,> 100 µM,39.7,> 100 µM,12.4,> 100,33.1,> 100,> 100,> 100,64.3,> 100 µM,> 100,> 100,12.5,> 100 µM
NS(=O)(=O)c1ccc(N=Nc2cc3ccccc3c(C(=O)O)c2O)cc1,,> 100 µM,,,,> 100,,> 100,,> 100,,> 100 µM,,> 100,,> 100 µM
c1ccc2c(Nc3ccc4c(c3)OCO4)c3ccoc3nc2c1,,,12.5,29.6 µM,14.7,37.3,14.7,45.6,> 100,> 100,25.5,> 100 µM,22.7,99.7,12.6,46.4 µM
O=C(CN1CCN(c2cc3c(cc2F)c(=O)c(C(=O)O)cn3C2CC2)CC1)Nc1ccc(C(=O)/C=C/c2ccccc2)cc1,3.55,> 100 µM,39.6,> 100 µM,0.659,2.68,3.68,> 100,4.99,> 100,6.83,> 100 µM,27.3,> 100,3.07,> 100 µM
O=C(c1nc2ccccc2[nH]1)C1C(c2cccc([N+](=O)[O-])c2)C2CC3CCCCC3N2[C@@]12C(=O)Nc1cc(Cl)ccc12 (some centres undefined),1.77,4.36 µM,1.88,3.83 µM,,,,,1.63,4.41,1.59,3.48 µM,,,2.68,20.1 µM
CN1CCN(Cc2ccc(NC(=O)c3cncc(C#Cc4cncc5[nH]ncc45)c3)cc2C(F)(F)F)CC1,1.39,5.58 µM,0.777,5.88 µM,0.215,2.34,1.69,6.14,0.523,2.45,0.206,2.86 µM,1.4,4.89,1.5,6.73 µM
CCN(Cc1cccc(C)c1)c1ccc(CO)c(Cl)c1,13.4,27.2 µM,12.1,25.4 µM,0.203,10.7,12.1,33.1,15.2,37.7,0.121,0.252 µM,11.7,29.5,12.3,28.3 µM
Cn1cc(C2=C(c3cn(C)c4cc(Cl)ccc34)C(=O)NC2=O)c2ccccc21,0.623,> 25 µM,0.203,> 11.7 µM,0.113,> 20.6,0.103,> 25,0.0731,1.93,2.08,> 25 µM,0.101,> 25,0.117,> 25 µM

SMILES,GI50 (BT-549 breast) [µM],TGI (BT-549 breast),GI50 (HCC-2998 colon) [µM],TGI (HCC-2998 colon),GI50 (HCT-116 colon) [µM],TGI (HCT-116 colon) [µM],GI50 (HCT-15 colon) [µM],TGI (HCT-15 colon) [µM],GI50 (HS 578T breast) [µM],TGI (HS 578T breast) [µM],GI50 (NCI-H226 lung) [µM],TGI (NCI-H226 lung),GI50 (SK-OV-3 ovarian) [µM],TGI (SK-OV-3 ovarian) [µM],GI50 (OVCAR-8 ovarian) [µM],TGI (OVCAR-8 ovarian)
COc1cc(C2CC(c3cc(Cl)c(C)cc3O)=NN2c2ccc(S(N)(=O)=O)cc2)cc(OC)c1OC (centres undefined),2.6,7.01 µM,1.84,3.75 µM,1.63,2.98,3.28,11.8,2.21,7.02,3.73,13.3 µM,3.71,11.4,3.92,12.9 µM
CCN(CC)c1ccc(/C=C2/NC(=O)NC2=O)cc1,7.49,> 100 µM,16.2,> 100 µM,3.65,> 100,3.21,> 100,1.23,> 28,> 95.2,> 100 µM,6.84,> 100,14.7,> 100 µM
CCn1c(-c2nonc2N)nc2c(C#CC(C)(C)O)ncc(OCC3CCNCC3)c21,11,> 25 µM,11.4,> 25 µM,6.67,> 20.9,16.5,> 25,3.83,15.4,> 15.2,> 25 µM,10.4,> 25,9.68,> 25 µM
CCN1CCN(c2nc(NNC(=O)c3cccc(OC)c3)nc(N3CCN(C(c4ccccc4)c4ccccc4)CC3)n2)CC1,2.65,9.81 µM,1.96,4.33 µM,1.61,3.22,,,1.89,4.43,1.69,3.76 µM,2.72,7.08,,
Fc1ccc(-c2ncn(C3CCNCC3)c2-c2ccnc(Oc3ccc(Oc4ccccc4)cc3)n2)cc1,3.75,7.1 µM,3.15,6.69 µM,3.47,6.76,3.55,7.29,1.73,6.89,3.6,7.53 µM,4.41,7.9,4.2,8.4 µM
COC(=O)[C@@H](C)C[C@H](Cc1ccccc1)NC(=O)c1csc([C@@H](C[C@H](C(C)C)N(C)C(=O)[C@@H](NC(=O)CN(C)C)C2CC2)OC(C)=O)n1,0.0127,0.857 µM,0.0573,> 16.5 µM,0.0154,> 5.86,0.135,> 16.5,0.0263,> 16.5,0.554,> 13.2 µM,0.434,> 16.5,0.0495,> 16.5 µM
O=C(N/N=C\c1cc(Br)cc(Br)c1O)N/N=C/c1cc(Br)cc(Br)c1O,5.54,25.7 µM,13.4,32.5 µM,5.96,22.3,2.77,16.1,19.8,51.2,2.23,9.82 µM,5.21,16.6,2.88,16.7 µM
O=C(Nc1ccc(Oc2cccc(Cl)c2)c(Cl)c1)c1cccnc1,5.42,44.3 µM,5.62,15.7 µM,2.11,> 50,0.343,> 50,1.83,35.5,2.16,32 µM,2.12,> 50,2.85,33.9 µM
COC(=O)CCCCCCCCC(=O)c1c(C)[nH]c(/C=C2\N=C(c3ccc[nH]3)C=C2OC)c1C,3.39,> 100 µM,> 26.9,> 100 µM,8.09,> 56,22.1,> 57.7,> 33,> 100,8.72,> 100 µM,> 100,> 100,14.4,> 59.9 µM
COc1cc2cc(C(=O)N3C[C@H](CCl)c4c3cc(O)c3ccccc43)[nH]c2c(OC)c1OC,0.0312,1.56 µM and 0.46 µM,0.0286,0.654 µM and 1.13 µM,0.0165,59,0.022,,,0.652,1.79,0.504 µM and 3.38 µM,,,1.67,1.13 µM and 3.53 µM
c1ccc(-c2nn(-c3ccccc3)[n+](-c3ccccc3-c3ccccc3)n2)cc1,0.461,7.87 µM,0.94,17.3 µM,0.699,> 33.3,21.5,> 100,1.88,31.5,2.83,> 100 µM,1.29,> 29.1,0.757,12.5 µM
NC(=S)c1cn(C2OC(CO)C(O)C2O)c2ncnc(N)c12 (centres undefined),0.149,1.65 µM,0.208,0.998 µM,0.0876,> 33.9,0.191,,0.254,2.54,0.602,> 21.1 µM,,,0.209,
O=C(O)c1ccccc1/C=C1/Nc2ccccc2C1=O,,,,> 100 µM,,> 100,,> 100,,> 100,,> 100 µM,,> 100,,> 100 µM
Cc1ccc(/C=C2\CN(C(=O)CCN3CCC(=NO)CC3)C/C(=C\c3ccc(C)cc3)C2=O)cc1,,,1.57,3.18 µM,0.363,1.28,,,3.2,> 100,1.83,3.86 µM,,,,
CCOC(=O)CCC(NC(=O)c1ccc(Nc2nc3cc(N)cc(N)c3nc2-c2ccccc2)cc1)C(=O)OCC (centres undefined),40.1,> 100 µM,,,> 38.7,> 71.6,> 48.1,> 100,33.3,75,> 51.6,> 74.1 µM,22,47.7,47.1,> 100 µM
S=C1NC2=C(CCOc3c2ccc2ccccc32)C(c2ccc(Cl)cc2)N1 (centres undefined),25.8,91.9 µM,,,,,14.3,86,21.5,73.5,17,49.5 µM,> 100,> 100,44.7,> 100 µM
